From patent US7087623B2, “Thiazole and other heterocyclic ligands for mammalian dopamine, muscarinic and serotonin receptors and transporters, and methods of use thereof” (Sepracor Inc., priority 2001, dated 2006)
Read-outs that look alike come from different tables or passages of the source.

Experiments:
[1] = biological target: T1, human serotonin 5-HT2B receptor (Homo sapiens, UniProt P41595); experiment: Radioligand binding assay, human 5-HT2B receptors ([3H]LSD)
T1 construct: expressed in transfected cells; host or cells: CHO-K1
T1 sequence (P41595 whole entry): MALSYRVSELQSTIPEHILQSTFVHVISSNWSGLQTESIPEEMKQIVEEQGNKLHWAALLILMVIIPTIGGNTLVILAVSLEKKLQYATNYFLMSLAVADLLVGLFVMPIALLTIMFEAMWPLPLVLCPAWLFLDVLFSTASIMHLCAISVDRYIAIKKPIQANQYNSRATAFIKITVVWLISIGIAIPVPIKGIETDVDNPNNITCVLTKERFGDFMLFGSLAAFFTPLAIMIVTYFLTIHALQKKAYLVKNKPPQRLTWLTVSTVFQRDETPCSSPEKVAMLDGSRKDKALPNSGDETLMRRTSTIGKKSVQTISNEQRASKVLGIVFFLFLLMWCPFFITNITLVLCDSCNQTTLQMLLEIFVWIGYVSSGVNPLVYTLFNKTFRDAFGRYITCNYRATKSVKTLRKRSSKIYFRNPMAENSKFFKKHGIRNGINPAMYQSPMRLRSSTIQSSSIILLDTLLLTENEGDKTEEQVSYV
Protocol: This assay measures binding of [^3H]LSD to human serotonin 5-HT2B receptors. CHO-K1 cells stably transfected with a plasmid encoding the human serotonin 5-HT2B receptor were used to prepare membranes in modified Tris-HCl pH 7.4 buffer using standard techniques. […] Non-specific binding was estimated in the presence of 10 μM serotonin. Membranes were filtered and washed 3 times and the filters were counted to determine [^3H]LSD specifically bound. See Bonhaus, D. W. et al. “The pharmacology and distribution of human 5-hydroxytryptamine2B (5-HT2B) receptor gene products: comparison with 5-HT2A and 5-HT2C receptors” Brit.
The human 5-HT2b screen was conducted according to Wolf, W. A. et al. J. Neurochem.

[2] = biological target: T2, human serotonin 5-HT2C receptor (Homo sapiens, UniProt P28335); experiment: Radioligand binding assay, human 5-HT2C receptors ([3H]Mesulergine); conditions: human 5-HT2c, Example 16 table
T2 construct: expressed in transfected cells; host or cells: CHO-K1
T2 sequence (P28335 33-458): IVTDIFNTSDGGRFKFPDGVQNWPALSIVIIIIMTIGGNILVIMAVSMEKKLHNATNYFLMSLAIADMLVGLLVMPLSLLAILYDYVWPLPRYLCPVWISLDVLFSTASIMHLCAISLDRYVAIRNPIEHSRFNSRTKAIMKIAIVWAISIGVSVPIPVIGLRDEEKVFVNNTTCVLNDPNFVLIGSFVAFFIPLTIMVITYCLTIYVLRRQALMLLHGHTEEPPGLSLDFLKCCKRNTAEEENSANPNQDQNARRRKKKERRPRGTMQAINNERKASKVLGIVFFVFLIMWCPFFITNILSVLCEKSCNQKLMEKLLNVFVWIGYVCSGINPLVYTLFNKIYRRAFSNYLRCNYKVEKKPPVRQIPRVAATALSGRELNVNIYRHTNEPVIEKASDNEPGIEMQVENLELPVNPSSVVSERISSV
Protocol: (§1) The human 5-HT2a and 5-HT2b screens were conducted according to Bonhaus, D. W. et al. Br. J. Pharmacol. 1995, 115, 622. The human 5-HT2c screen was conducted according to Wolf, W. A. et al. J. Neurochem. 1997, 69, 1449. The human 5-HT6 screen was conducted according to Monsma, F. J. et al. Mol. Pharmacol. 1993, 43, 320.
CHO-K1 cells stably transfected with a plasmid encoding the human serotonin 5-HT2C receptor were used to prepare membranes in modified Tris-HCl pH 7.7 buffer using standard techniques. […] Non-specific binding was estimated in the presence of 1 μM mianserin. […] See Wolf, W. A. and Schutz, J. S. “The serotonin 5-HT2C receptor is a prominent serotonin receptor in basal ganglia: evidence from functional studies on serotonin-mediated phosphoinositide hydrolysis” J. Neurochem. 69: 1449–1458, 1997.
(§2) The human 5-HT2a and 5-HT2b screens were conducted according to Bonhaus, D. W. et al. Br. J. Pharmacol. 1995, 115, 622. The human […], W. A. et al. J. Neurochem. 1997, 69, 1449. The human 5-HT6 screen was conducted according to Monsama, F. J. et al. Mol. Pharmacol. 1993, 43, 320. The assay to human D3 receptors was conducted according to Sokoloff, P. et al. Nature 1990, 347;146. The human dopamine transporter assay was conducted according to Gu, H. et. al. J. Biol. Chem. 1994, 269 (10);7124; and Giros, B. et al. Trends. Pharmacol. Sci. 1993, 14: 43. The human muscarinic M1–M4 screens were conducted according to Buckley N. J. et al. Mol. Pharmacol. 1989, 35:469.

[3] = biological target: T3, human dopamine D3 receptor (Homo sapiens, UniProt P35462); experiment: Radioligand binding assay, human dopamine D3 receptors ([3H]Spiperone)
T3 construct: expressed in transfected cells; host or cells: CHO
T3 sequence (P35462 whole entry): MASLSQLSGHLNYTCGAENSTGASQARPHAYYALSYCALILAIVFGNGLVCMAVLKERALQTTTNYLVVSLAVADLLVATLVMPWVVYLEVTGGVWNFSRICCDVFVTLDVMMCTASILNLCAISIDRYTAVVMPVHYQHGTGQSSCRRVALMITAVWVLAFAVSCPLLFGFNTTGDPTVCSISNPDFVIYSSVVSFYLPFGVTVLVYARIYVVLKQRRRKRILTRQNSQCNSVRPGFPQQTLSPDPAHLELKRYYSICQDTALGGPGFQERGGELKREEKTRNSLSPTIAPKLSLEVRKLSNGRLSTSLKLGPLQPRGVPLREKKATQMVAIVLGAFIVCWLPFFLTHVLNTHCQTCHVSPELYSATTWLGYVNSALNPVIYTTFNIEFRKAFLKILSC
Protocol: The assay for binding to human D3 receptors was conducted according to Sokoloff, P. et al. Nature 1990, 347, 146.
CHO cells stably transfected with a plasmid encoding the human dopamine D3 receptor were used to prepare membranes in modified Tris-HCl pH 7.4 buffer using standard techniques. […] Non-specific binding was estimated in the presence of 25 μM S-(−)-sulpiride. […] See Sokoloff, P. et al. “Molecular cloning and characterization of a novel dopamine receptor (D3) as a target for neuroleptics” Nature 347: 146–151, 1990.
as §2

[4] = biological target: T4, human serotonin 5-HT6 receptor (Homo sapiens, UniProt P50406); experiment: Radioligand binding assay, human 5-HT6 receptors ([3H]LSD)
T4 construct: expressed in transfected cells; host or cells: HeLa/E6-7
T4 sequence (P50406 whole entry): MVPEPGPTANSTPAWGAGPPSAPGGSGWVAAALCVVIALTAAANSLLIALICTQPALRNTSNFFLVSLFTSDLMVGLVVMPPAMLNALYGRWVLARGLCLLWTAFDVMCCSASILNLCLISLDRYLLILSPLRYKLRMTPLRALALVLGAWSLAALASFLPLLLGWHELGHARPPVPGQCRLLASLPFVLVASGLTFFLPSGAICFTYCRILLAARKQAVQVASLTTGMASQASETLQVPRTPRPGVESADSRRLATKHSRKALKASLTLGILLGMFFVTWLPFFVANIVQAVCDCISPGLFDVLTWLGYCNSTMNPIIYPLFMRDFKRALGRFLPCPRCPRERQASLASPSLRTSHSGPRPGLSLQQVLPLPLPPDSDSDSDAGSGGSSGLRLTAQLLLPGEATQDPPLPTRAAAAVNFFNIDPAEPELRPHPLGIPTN
Protocol: as §1
This assay measures binding of [^3H]LSD (lysergic acid diethylamide) to human serotonin 5-HT6 receptors. HeLa/E6–7 cells stably transfected with a plasmid encoding the human serotonin 5-HT6 receptor were used to prepare membranes in modified Tris-HCl pH 7.4 buffer using standard techniques. A 30 μg aliquot of membrane was incubated with 1.5 nM [^3H]LSD for 120 minutes at 37° C. Non-specific binding was estimated in the presence of 5 μM 5-HT. Membranes were filtered and washed 3 times and the filters were counted to determine [^3H]LSD specifically bound. See Monsma, Jr., F. J. et al. “Cloning and expression of a novel serotonin receptor with high affinity for tricyclic psychotropic drugs” Mol. Pharmacol. 43: 320–327, 1993.
as §2

[5] = biological target: T5, human dopamine transporter (Homo sapiens, UniProt Q01959); experiment: Binding to human dopamine transporter ([125I]RTI-55)
T5 construct: expressed in transfected cells; host or cells: CHO-K1
T5 sequence (Q01959 whole entry): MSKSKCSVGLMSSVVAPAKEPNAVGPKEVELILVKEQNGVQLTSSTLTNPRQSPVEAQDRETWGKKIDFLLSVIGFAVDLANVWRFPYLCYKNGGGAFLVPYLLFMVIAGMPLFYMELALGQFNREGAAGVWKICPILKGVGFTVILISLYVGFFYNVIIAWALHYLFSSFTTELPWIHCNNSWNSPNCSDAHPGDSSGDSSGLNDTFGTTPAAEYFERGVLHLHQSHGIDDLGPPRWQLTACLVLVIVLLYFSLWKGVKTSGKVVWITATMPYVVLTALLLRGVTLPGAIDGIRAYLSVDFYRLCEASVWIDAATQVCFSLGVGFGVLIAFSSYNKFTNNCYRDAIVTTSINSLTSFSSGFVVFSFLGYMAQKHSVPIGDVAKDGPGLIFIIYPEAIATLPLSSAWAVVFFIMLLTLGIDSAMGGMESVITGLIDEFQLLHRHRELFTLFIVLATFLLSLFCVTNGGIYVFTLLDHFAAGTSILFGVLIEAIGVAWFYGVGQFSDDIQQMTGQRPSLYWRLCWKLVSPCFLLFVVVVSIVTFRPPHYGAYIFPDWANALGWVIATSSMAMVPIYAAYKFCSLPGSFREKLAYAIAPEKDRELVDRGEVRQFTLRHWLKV
Protocol: CHO-K1 cell membranes stably transfected with a plasmid encoding the human dopamine transporter were prepared in modified Tris-HCl pH 7.4 buffer using standard techniques. […] Non-specific binding was estimated in the presence of 10 μM nomifensine. […] Trends. […]

[6] = biological target: T6, human serotonin 5-HT2A receptor (Homo sapiens, UniProt P28223); experiment: Radioligand binding assay, human 5-HT2A receptors ([3H]Ketanserin); conditions: human 5-HT2a, Example 16 table
T6 construct: expressed in transfected cells; host or cells: CHO-K1
T6 sequence (P28223 whole entry): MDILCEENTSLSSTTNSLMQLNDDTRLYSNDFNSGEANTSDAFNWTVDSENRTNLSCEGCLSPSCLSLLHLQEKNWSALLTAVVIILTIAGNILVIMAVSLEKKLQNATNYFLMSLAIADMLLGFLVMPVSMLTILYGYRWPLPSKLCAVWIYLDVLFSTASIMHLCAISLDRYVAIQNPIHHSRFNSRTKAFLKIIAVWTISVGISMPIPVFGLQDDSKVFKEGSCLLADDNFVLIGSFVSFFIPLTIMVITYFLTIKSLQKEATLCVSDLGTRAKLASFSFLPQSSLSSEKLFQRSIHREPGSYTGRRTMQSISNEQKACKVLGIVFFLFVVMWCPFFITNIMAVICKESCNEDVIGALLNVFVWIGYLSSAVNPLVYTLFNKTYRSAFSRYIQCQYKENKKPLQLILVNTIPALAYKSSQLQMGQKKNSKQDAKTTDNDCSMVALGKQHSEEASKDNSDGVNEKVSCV
Protocol: as §1
CHO-K1 cells stably transfected with a plasmid encoding the human serotonin 5-HT2A receptor were used to prepare membranes in modified Tris-HCl pH 7.7 buffer using standard techniques. […] Non-specific binding was estimated in the presence of 1 μM mianserin. […] See Bonhaus, D. W. et al. “The pharmacology and distribution of human 5-hydroxytryptamine2B (5-HT2B) receptor gene products: comparison with 5-HT2A and 5-HT2C receptors” Brit. J. Pharmacol. 115: 622–628, 1995; and Saucier, C and Albert, P. R. “Identification of an endogenous 5-hydroxytryptamine2A receptor in NIH-3T3 cells: agonist-induced down-regulation involves decreases in receptor RNA and number” J. Neurochem. 68: 1998–2011, 1997.
as §2

[7] = test system: ICR male or female mice; experiment: Acute toxicity evaluation in mice, intravenous; assay type: in vivo, mouse; conditions: intravenous doses of 5 and 10 mg/kg, deaths recorded at 3, 24, 48 and 72 hours
Protocol: Compound 20 was formulated in 5% dextrose in water (w/v)/PEG 400 (4:1 v/v) to a maximum concentration of 8 mg/mL. The solution was passed through a 0.8/0.2 micron filter before administration.
ICR male or female mice weighing 20–22 g were maintained in a hygienic environment under controlled temperature (22–24° C.) and humidity (60–80%) with 12-hour light/dark cycles for at least one week. Free access to standard lab chow for mice and tap water was granted.
Three mice/dose (5 and 10 mg/kg) were intravenously administered test compound. Animal deaths were recorded at 3, 24, 48 and 72 hours after treatment.

[8] = human 5-HT2b, Example 16 table, read-out: IC50 (nM) 5-HT2b
[9] = Example 20 table, read-out: IC50 (nM) Against Human D3 Receptors
[10] = human 5-HT6, Example 16 table, read-out: IC50 (nM) 5-HT6
[11] = human, Example 101 table, read-out: IC50 (nM) DAT
[12] = IC50 (nM) Against Human D3 Receptors, Example 20 table
[13] = IC50 (nM) 5-HT6, human 5-HT6, Example 16 table

| Compound | IC50 [1, 8] | IC50 ([2]; read-out: IC50 (nM) 5-HT2c) | IC50 [3, 9] | IC50 [4, 10] | IC50 [5, 11] | IC50 ([6]; read-out: IC50 (nM) 5-HT2a) | other results |
| --- | --- | --- | --- | --- | --- | --- | --- |
| Clc1ccc(C2(c3csc(NCCN4CCOCC4)n3)CCC2)cc1 [Compound 22, {4-[1-(4-chlorophenyl)-cyclobutyl]thiazol-2-yl}-(2-morpholin-4-yl-ethyl)amine] | > 1000 nM | > 1000 nM | > 1000 nM | > 1000 nM | > 1000 nM | > 1000 nM |  |
| CN1CCN(c2nc(CCc3ccc(Cl)cc3)cs2)CC1 [Compound 32] | < 1000 nM | < 100 nM | > 1000 nM | > 1000 nM | > 1000 nM | < 100 nM |  |
| Clc1ccc(C2(c3csc(NCCN4CCCCC4)n3)CCC2)cc1 [Compound 23, {4-[1-(4-chlorophenyl)-cyclobutyl]thiazol-2-yl}-(2-piperidin-1-yl-ethyl)amine] | < 1000 nM | < 100 nM | < 1000 nM | > 1000 nM | < 500 nM | < 1000 nM |  |
| CN1CCC(c2nc(C3(c4ccc(Cl)cc4)CCCCC3)cs2)CC1 [Compound 35] | < 1000 nM | < 1000 nM | < 100 nM | < 1000 nM | < 100 nM | < 1000 nM |  |
| CN1CCCC1CCNc1nc(C2(c3ccc(Cl)cc3)CCC2)no1 (stereo not shown) [Compound 26, {3-[1-(4-Chlorophenyl)cyclobutyl]-[1,2,4]oxadiazol-5-yl}-[2-(1-methyl-pyrrolidin-2-yl)-ethyl]-amine] |  |  |  |  |  |  | IC50 [1]: > 1000 nM; IC50 ([2]; IC50 (nM) 5-HT2c): < 1000 nM; IC50 [3, 12]: > 1000 nM; IC50 [4, 13]: > 1000 nM; IC50 [5]: < 1000 nM; IC50 ([6]; IC50 (nM) 5-HT2a): > 1000 nM |
| CN1CCN(c2nc(C3(c4ccc(Cl)cc4)CCC3)no2)CC1 [Compound 28, 1-{3-[1-(4-chlorophenyl)cyclobutyl]-[1,2,4]oxadiazol-5-yl}-4-methylpiperazine] | > 1000 nM | > 1000 nM | > 1000 nM | > 1000 nM | > 1000 nM | > 1000 nM |  |
| COc1ccc(C2(c3csc(N4CCN(C)CC4)n3)CCOCC2)cc1OC [Compound 74] | > 1000 nM | > 1000 nM | > 1000 nM | > 1000 nM | > 1000 nM | > 1000 nM |  |
| CN1CCN(c2nc(C3(c4ccc(Cl)cc4)CCCC3)cs2)CC1 [Compound 85] | < 1000 nM | < 1000 nM | < 1000 nM | < 100 nM | < 100 nM | > 1000 nM |  |
| CN1CCCC1CCNc1nc(C2(c3ccc(Cl)cc3)CCC2)cs1 (stereo not shown) [Compound 24, {4-[1-(4-chlorophenyl)-cyclobutyl]thiazol-2-yl}-[2-(1-methylpyrrolidin-2-yl)ethyl]amine] | < 100 nM | < 10 nM | < 1000 nM | < 1000 nM | < 500 nM | < 100 nM |  |
| CCN1CCCC1CNc1nc(C2(c3ccc(Cl)cc3)CCC2)cs1 (stereo not shown) [Compound 25, {4-[1-(4-chlorophenyl)cyclobutyl]thiazol-2-yl}-(1-ethylpyrrolidin-2-ylmethyl)amine] | < 1000 nM | < 1000 nM | < 1000 nM | < 1000 nM | > 1000 nM | < 1000 nM |  |
| CN1CCN(c2nc(C3(c4ccc(Cl)cc4)CCOCC3)cs2)CC1 [Compound 29, 1-{4-[4-(4-chlorophenyl)tetrahydropyran-4-yl]-thiazol-2-yl}-4-methylpiperazine] |  |  |  |  |  |  | IC50 [1]: > 1000 nM; IC50 ([2]; IC50 (nM) 5-HT2c): < 1000 nM; IC50 [3, 12]: < 1000 nM; IC50 [4, 13]: < 100 nM; IC50 [5]: < 1000 nM; IC50 ([6]; IC50 (nM) 5-HT2a): > 1000 nM |
| CCN(CC)CCCNc1nc(C2(c3ccc(Cl)cc3)CCC2)cs1.O=C(O)CC(O)(CC(=O)O)C(=O)O [Compound 20, N′-{4-[1-(4-chlorophenyl)cyclobutyl]thiazol-2-yl}-N,N-diethylpropane-1,3-diamine citrate salt] |  |  |  |  |  |  | Animal deaths [7]: no deaths were observed |
| Clc1ccc(C2(c3csc(NCCN4CCOCC4)n3)CCCC2)cc1 [Compound 99] |  |  |  |  |  |  | IC50 ([3]; human, Example 100 table, read-out: IC50 (nM) D3): > 1000 nM; IC50 ([4]; human, Example 100 table, read-out: IC50 (nM) 5-HT6): < 1000 nM; IC50 ([5]; human, Example 100 table, read-out: IC50 (nM) DAT): < 1000 nM |
| CN1CCN(c2nc(C3(c4ccc(Cl)cc4)CCC3)cs2)CC1 [Compound 27, 1-{4-[1-(4-chlorophenyl)cyclobutyl]thiazol-2-yl}-4-methylpiperazine] | < 1000 nM | < 1000 nM | < 1000 nM | < 1000 nM | < 500 nM | < 1000 nM |  |
